# Source: US9920057B2, “Substituted pyrazino[1′,2′:1 ,6]pyrido[3,4-b]indoles as phosphodiesterase type 5 inhibitors” (Chongqing University of Arts and Sciences, priority 2015, dated 2018)
# Where “and” joins values, the source holds several entries; their conditions need not be identical. Equal entries are not always repeated. Where two headings read alike, the source gives them in different places.
# Assays:
# [1] = system: normal rat; assay: Erectile function of normal rat: blood pressure, intracavernous pressure and detumescence time on cavernous nerve stimulation; type: in vivo; conditions: reference group (Calais), dose not stated
# Procedure: Rats were anesthetized with 2% pentobarbital […], then incision was made in the right side of neck, a PE-50 silicon tube connected with a pressure transducer was inserted into the carotid artery, to record the change of the blood pressure.
# The erectile activity was induced by a bipolar stainless-steel, stimulus parameters at a pulse width of […], stimulation frequency of 7.98 Hz, current of 3 mA, stimulation duration of 40 s, and then record the intracavernous pressure (ICP).
# Assessment of erectile function: ICP, BP, change of ICP and detumescence time were monitored though electric cavernous nerve stimulation at 2, 6 and 24 hours post dosing. Erectile function was evaluated by change of ICP and detumescence time.
# [2] = Study on pharmacokinetics in rats, oral administration; type: in vivo, SD rat; conditions: oral 10.0 mg · kg^−1
# Procedure: Sample Preparation Method: One step protein precipitation
# Precipitant: ACN, with concentration of Verapamil (5.00 ng·mL-1)
# Calibration Curve and QC samples Preparation: 5.00 μL each of the calibration or QC working solution and 45.0 μL of blank plasma were transferred into a 1.5-mL microcentrifuge tube. Final standard curve concentration levels were 1.00, 2.50, 5.00, 10.0, 50.0, 100, 500 and 1000 ng·mL-1. The QC concentration levels were 2.50 or 5.00, 50.0 and 800 ng·mL-1. Dilution QC was 5000 ng·mL-1.
# Plasma Samples Preparation: Aliquots of 10.0 μL of real samples, calibration curve samples and QC samples were supplemented with 100 μL of precipitant. After vortexed for 3.00 min and centrifuged at 12000 rpm for 5.00 min, the supernatant 10 μL was injected for LC-MS/MS analysis.
# Number of Rats/Group: 3/group
# Administration Route: oral administration
# Blood Collection Time: 0 min, 15 min, 30 min, 1 h, 2 h, 4 h, 6 h, 8 h, 24 h
# [3] = target: T1, PDE3A (Homo sapiens, UniProt Q14432); assay: Inhibition of PDE activity (assay kit); type: biochemical
# T1 construct: purchased
# Procedure: (§1) i. Supplement 99 μl assay buffer per well, then add 1 μl compound in DMSO dilution to wells of V96 MicroWell Plates and uniformly mix;
# (§2) ii. Add 5 μl compound in assay buffer dilution to each well of 96-well microplate;
# (§3) the final concentration of compound as below:
# (§4) The inhibitory potential of test compounds on several types of phosphodiesterase (PDE) activity is determined according to the protocol of assay kit.
# [4] = target: T2, PDE2A (Homo sapiens, UniProt O00408); assay: Inhibition of PDE activity (assay kit); type: biochemical
# T2 construct: purchased
# Procedure: as §1, §2, §3, §4
# [5] = target: T3, PDE7A (Homo sapiens, UniProt Q13946); assay: Inhibition of PDE activity (assay kit); type: biochemical
# T3 construct: purchased
# Procedure: as §1, §2, §3, §4
# [6] = target: T4, PDE1A (Homo sapiens, UniProt P54750); assay: Inhibition of PDE activity (assay kit); type: biochemical
# T4 construct: purchased
# Procedure: as §1, §2, §3, §4
# [7] = background statement; cited from earlier work
# [8] = target: T5, PDE5A (Homo sapiens, UniProt O76074); assay: Inhibition against PDE5 (Homogenous Time Resolve Fluoresce); type: biochemical; conditions: HTF
# T5 construct: purchased SIGMA-ALDRICH E904
# Procedure: Method: IC50 of an inhibition effect on PDE5A (E904, SIGMA-ALDRICH) of test compounds was tested by using Sildenafil (S1431, selleck) as a positive control sample and the method of Homogenous Time Resolve Fluoresce, HTF (Cat. No. 62GM2PEB, Cisbio.)
# [9] = SD, rat, plasma, po, 10 mg/kg, Mean of 3 rats
# [10] = SD, rat, plasma, po, 10 mg/kg, Mean of 3 rats, read-out: AUC0-inf
# [11] = SD, rat, plasma, po, 10 mg/kg, Mean of 3 rats, read-out: AUC0-t
# [12] = SD, rat, plasma, po, 10 mg/kg, Mean of 3 rats, read-out: Cmax
# [13] = SD, rat, plasma, po, 10 mg/kg, individual rats
# [14] = SD, rat, plasma, po, 10 mg/kg, individual rats, read-out: AUC0-inf
# [15] = SD, rat, plasma, po, 10 mg/kg, individual rats, read-out: AUC0-t
# [16] = SD, rat, plasma, individual rats
# T2 sequence (O00408 whole entry): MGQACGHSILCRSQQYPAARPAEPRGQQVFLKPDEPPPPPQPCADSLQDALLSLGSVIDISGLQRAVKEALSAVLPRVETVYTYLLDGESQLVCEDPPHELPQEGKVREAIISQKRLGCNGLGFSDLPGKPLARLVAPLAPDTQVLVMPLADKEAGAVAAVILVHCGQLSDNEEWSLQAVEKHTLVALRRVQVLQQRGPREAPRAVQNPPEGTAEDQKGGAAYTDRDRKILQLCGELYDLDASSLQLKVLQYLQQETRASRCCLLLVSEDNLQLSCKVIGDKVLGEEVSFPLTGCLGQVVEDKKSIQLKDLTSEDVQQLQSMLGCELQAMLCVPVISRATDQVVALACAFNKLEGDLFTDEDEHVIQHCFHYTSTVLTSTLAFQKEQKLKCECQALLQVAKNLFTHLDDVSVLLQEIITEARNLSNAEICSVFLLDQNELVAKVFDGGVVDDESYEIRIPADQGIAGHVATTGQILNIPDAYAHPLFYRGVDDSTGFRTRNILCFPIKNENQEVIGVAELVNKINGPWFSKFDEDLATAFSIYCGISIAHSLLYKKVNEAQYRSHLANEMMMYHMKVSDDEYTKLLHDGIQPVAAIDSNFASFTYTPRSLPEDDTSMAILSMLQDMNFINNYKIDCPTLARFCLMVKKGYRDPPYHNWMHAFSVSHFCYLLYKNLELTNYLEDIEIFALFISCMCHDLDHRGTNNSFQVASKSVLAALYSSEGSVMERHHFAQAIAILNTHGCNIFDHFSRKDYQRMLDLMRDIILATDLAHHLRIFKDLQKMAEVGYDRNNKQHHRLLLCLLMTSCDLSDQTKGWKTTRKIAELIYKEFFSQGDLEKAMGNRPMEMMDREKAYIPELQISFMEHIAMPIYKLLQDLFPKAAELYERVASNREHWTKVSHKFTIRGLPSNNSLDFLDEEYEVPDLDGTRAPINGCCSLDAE
# T1 sequence (Q14432 whole entry): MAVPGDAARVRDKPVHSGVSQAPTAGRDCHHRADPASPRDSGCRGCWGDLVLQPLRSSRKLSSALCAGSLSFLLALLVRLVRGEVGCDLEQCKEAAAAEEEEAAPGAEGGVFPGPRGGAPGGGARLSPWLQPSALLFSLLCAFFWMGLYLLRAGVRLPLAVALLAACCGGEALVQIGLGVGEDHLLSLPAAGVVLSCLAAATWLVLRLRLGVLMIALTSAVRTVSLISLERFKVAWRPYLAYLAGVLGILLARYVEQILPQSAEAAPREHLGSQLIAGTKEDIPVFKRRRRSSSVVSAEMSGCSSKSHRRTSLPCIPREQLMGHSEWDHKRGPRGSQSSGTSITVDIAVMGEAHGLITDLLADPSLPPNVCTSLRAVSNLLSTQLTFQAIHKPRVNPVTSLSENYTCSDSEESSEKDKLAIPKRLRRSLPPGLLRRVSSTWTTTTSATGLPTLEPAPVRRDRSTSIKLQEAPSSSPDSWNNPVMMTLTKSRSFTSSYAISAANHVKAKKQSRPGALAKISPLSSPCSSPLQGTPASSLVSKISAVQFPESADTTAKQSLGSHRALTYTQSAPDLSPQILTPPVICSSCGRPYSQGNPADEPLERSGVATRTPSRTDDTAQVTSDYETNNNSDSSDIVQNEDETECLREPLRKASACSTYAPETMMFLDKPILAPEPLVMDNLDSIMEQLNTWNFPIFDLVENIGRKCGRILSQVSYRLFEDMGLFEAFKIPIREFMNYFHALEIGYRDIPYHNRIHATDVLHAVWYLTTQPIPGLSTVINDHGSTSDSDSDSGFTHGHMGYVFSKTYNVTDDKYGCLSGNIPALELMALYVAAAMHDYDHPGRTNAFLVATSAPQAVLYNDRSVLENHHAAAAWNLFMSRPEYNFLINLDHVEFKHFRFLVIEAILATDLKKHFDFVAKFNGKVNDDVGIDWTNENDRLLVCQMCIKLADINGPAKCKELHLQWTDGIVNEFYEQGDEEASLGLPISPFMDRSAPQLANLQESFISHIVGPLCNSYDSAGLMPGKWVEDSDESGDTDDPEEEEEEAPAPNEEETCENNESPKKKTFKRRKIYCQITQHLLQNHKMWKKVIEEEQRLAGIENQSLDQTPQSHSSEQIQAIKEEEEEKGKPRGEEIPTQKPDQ
# T4 sequence (P54750 whole entry): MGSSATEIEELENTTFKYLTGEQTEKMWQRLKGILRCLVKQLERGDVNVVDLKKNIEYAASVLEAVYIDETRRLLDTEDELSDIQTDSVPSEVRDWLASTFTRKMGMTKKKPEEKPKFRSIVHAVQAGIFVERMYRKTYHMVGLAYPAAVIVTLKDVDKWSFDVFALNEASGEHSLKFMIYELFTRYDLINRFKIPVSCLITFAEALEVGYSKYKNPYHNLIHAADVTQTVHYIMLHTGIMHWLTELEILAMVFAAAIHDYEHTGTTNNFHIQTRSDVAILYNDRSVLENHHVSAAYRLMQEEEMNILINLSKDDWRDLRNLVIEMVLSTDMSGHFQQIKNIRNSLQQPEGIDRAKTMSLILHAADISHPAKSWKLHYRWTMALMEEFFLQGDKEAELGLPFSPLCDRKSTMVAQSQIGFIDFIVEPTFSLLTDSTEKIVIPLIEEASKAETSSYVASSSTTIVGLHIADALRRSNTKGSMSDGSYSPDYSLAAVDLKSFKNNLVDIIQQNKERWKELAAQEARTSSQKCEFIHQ
# T3 sequence (Q13946 whole entry): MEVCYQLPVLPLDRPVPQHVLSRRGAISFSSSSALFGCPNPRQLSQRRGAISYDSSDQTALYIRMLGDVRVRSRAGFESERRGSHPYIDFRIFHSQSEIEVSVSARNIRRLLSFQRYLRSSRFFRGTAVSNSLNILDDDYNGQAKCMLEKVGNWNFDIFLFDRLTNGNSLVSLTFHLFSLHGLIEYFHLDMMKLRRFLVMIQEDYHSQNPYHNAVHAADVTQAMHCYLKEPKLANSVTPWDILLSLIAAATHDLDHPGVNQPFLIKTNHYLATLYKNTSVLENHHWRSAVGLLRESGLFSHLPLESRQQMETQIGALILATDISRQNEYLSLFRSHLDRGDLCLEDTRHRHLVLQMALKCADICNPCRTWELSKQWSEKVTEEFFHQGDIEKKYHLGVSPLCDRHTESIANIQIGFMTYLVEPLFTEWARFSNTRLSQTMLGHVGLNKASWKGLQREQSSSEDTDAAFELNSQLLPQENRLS
structure (smiles),measurement,setting,value
CN1CC(=O)N2[C@H](c3ccc4c(c3)OCO4)c3[nH]c4ccccc4c3C[C@@H]2C1=O [Cialis],BP after stimulation,[1]; 2 hours after dosing,64.14 ± 9.86 mmHg
same,BP before stimulation,[1]; 2 hours after dosing,100.98 ± 4.48 mmHg
same,Change of BP,[1]; 2 hours after dosing,36.85 ± 7.34 mmHg
same,Change of ICP,[1]; 2 hours after dosing,31.82 ± 7.63 mmHg
same,Detumescence Time,[1]; 2 hours after dosing,40.50 ± 21.14 s
same,ICP after stimulation,[1]; 2 hours after dosing,39.19 ± 8.58 mmHg
same,ICP before stimulation,[1]; 2 hours after dosing,7.38 ± 1.75 mmHg
same,BP after stimulation,[1]; 6 hours after dosing,58.14 ± 14.30 mmHg
same,BP before stimulation,[1]; 6 hours after dosing,91.20 ± 28.48 mmHg
same,Change of BP,[1]; 6 hours after dosing,33.07 ± 17.13 mmHg
same,Change of ICP,[1]; 6 hours after dosing,34.15 ± 6.99 mmHg
same,Detumescence Time,[1]; 6 hours after dosing,44.25 ± 13.35 s
same,ICP after stimulation,[1]; 6 hours after dosing,41.76 ± 6.49 mmHg
same,ICP before stimulation,[1]; 6 hours after dosing,7.61 ± 1.53 mmHg
same,BP after stimulation,[1]; 24 hours after dosing,78.00 ± 2.68 mmHg
same,Change of BP,[1]; 24 hours after dosing,34.26 ± 7.18 mmHg
same,Change of ICP,[1]; 24 hours after dosing,35.38 ± 4.55 mmHg
same,Detumescence Time,[1]; 24 hours after dosing,41.25 ± 10.34 s
same,ICP after stimulation,[1]; 24 hours after dosing,43.01 ± 6.19 mmHg
same,ICP before stimulation,[1]; 24 hours after dosing,7.63 ± 4.03 mmHg
same,AUMC0-inf,[2]; Mean of 3 rats,54240 h · h · ng · mL^−1
same,AUMC0-t,[2]; Mean of 3 rats,52702 h · h · ng · mL^−1
same,Kel,[2]; Mean of 3 rats,0.248 h⁻¹
same,MRTPO,[2]; Mean of 3 rats,6.07 h
same,half-life,[2]; [9],2.99 h
same,AUC0-inf,[2]; [10],8860 ng·h/mL
same,AUC0-t,[2]; [11],8810 ng·h/mL
same,Cmax,[2]; [12],926 ng/mL
same,half-life,[2]; [13],3.46 h
same,AUC0-inf,[2]; [14],8810 ng·h/mL
same,AUC0-t,[2]; [15],8720 ng·h/mL
same,Tmax,[2]; [16],4 h
same,AUC0-inf,[2]; individual rats,6051 ng·h/mL and 11729 ng·h/mL
same,AUC0-t,[2]; individual rats,5993 ng·h/mL and 11723 ng·h/mL
same,AUMC0-inf,[2]; individual rats,56364 h · h · ng · mL^−1 and 34440 h · h · ng · mL^−1 and 71915 h · h · ng · mL^−1
same,AUMC0-t,[2]; individual rats,53611 h · h · ng · mL^−1 and 32747 h · h · ng · mL^−1 and 71748 h · h · ng · mL^−1
same,Cmax,[2]; individual rats,747 ng/mL and 676 ng/mL and 1356 ng/mL
same,Kel,[2]; individual rats,0.200 h⁻¹ and 0.197 h⁻¹ and 0.346 h⁻¹
same,MRTPO,[2]; individual rats,6.40 h and 5.69 h and 6.13 h
same,t1/2,[2]; individual rats,3.51 h and 2.00 h
same,IC50,[3],> 10 µM
same,IC50,[4],> 10 µM
same,IC50,[5],> 10 µM
same,IC50,[6],> 10 µM
same,half-life in body,[7],24 to 36 h
NN1CC(=O)N2[C@H](c3ccc4c(c3)OCO4)c3[nH]c4ccccc4c3C[C@@H]2C1=O [DDCI02],AUMC0-inf,[2]; Mean of 3 rats,69719 h · h · ng · mL^−1
same,AUMC0-t,[2]; Mean of 3 rats,63864 h · h · ng · mL^−1
same,Kel,[2]; Mean of 3 rats,0.193 h⁻¹
same,MRTPO,[2]; Mean of 3 rats,4.19 h
same,half-life,[2]; [9],3.73 h
same,AUC0-inf,[2]; [10],16300 ng·h/mL
same,AUC0-t,[2]; [11],16100 ng·h/mL
same,Cmax,[2]; [12],4680 ng/mL
same,half-life,[2]; [13],4.85 h
same,AUC0-inf,[2]; [14],18600 ng·h/mL
same,AUC0-t,[2]; [15],18100 ng·h/mL
same,Cmax,"[2]; SD, rat, plasma, po, 10 mg/kg, individual rats, read-out: Cmax",4580 ng/mL
same,Tmax,[2]; [16],0.25 h
same,AUC0-inf,[2]; individual rats,15617 ng·h/mL and 14794 ng·h/mL
same,AUC0-t,[2]; individual rats,15563 ng·h/mL and 14723 ng·h/mL
same,AUMC0-inf,[2]; individual rats,99393 h · h · ng · mL^−1 and 57718 h · h · ng · mL^−1 and 52047 h · h · ng · mL^−1
same,AUMC0-t,[2]; individual rats,85428 h · h · ng · mL^−1 and 56156 h · h · ng · mL^−1 and 50008 h · h · ng · mL^−1
same,Cmax,[2]; individual rats,4288 ng/mL and 5171 ng/mL
same,Kel,[2]; individual rats,0.143 h⁻¹ and 0.221 h⁻¹ and 0.216 h⁻¹
same,MRTPO,[2]; individual rats,5.35 h and 3.70 h and 3.52 h
same,t1/2,[2]; individual rats,3.14 h and 3.21 h
same,IC50,[8],0.566 µM
